Results from paper PMC7020211, “Inhibition of Digestive Enzymes and Antioxidant Activity of Extracts from Fruits of Cornus alba, Cornus sanguinea subsp. hungarica and Cornus florida–A Comparative Study” (Plants, 2020).
One block for each compound: values may come before it.

Experiments:
[1] = DPPH radical scavenging assay; settings: half scavenging concentration; 30 min incubation, absorbance 518 nm
Procedure: The scavenging of DPPH radical was examined using a modified assay previously described. The equal volumes (100 µL) of ethanolic solution of DPPH (0.02 M) and extract samples dissolved in 50% (v/v) aqueous-ethanol were added into 96-well microplates and incubated for 30 min in the darkness. The absorbance was measured at 518 nm with microplate reader (Synergy 4, Biotek, USA). The blind samples were prepared in order to exclude color interference. Ascorbic acid was used as a positive control.

[2] = molecular target: α-glucosidase; set-up: method as in doi:10.1016/j.jff.2017.04.005; settings: cited from earlier work
[3] = system: PL; set-up: method as in doi:10.1016/j.jff.2017.04.005; settings: read-out: IC50 against PL activity; cited from earlier work
[4] = molecular target: α-glucosidase from Saccharomyces cerevisiae (Saccharomyces cerevisiae, UniProt P53341); experiment: α-glucosidase inhibition (pNPG, spectrophotometric); type: biochemical; settings: pNPG substrate, pH 6.8, 37 °C; read-out: IC50 [mM] inhibition of α-glucosidase by compounds isolated from fruit of Cornus alba
From the text: Acetonitrile (MeCN, UHPLC-grade), n-butanol (BuOH), chloroform (CHCl3), ethyl acetate (EtOAc), ethanol (EtOH) and methanol (MeOH) for extraction were obtained from POCH (Gliwice, Poland). Natural product reagent A (diphenylboric acid 2-aminoethyl ester) and quercetin 3-O-glucoside (isoquercitrin) were purchased from Carl Roth GmbH (Karlsruhe, Germany). […] Quercetin 3-O-galactoside (hyperoside) was purchased from HWI Analytik GmbH (Rheinzaberner, Germany). […] Water was obtained using Millipore Simfilter Simplicity UV (Molsheim, France) water purification system. HPLC-DAD-MS^n analysis was performed on a UHPLC-3000 RS system (Dionex, Germany) with DAD and an AmaZon SL ion trap mass spectrometer with an ESI interface (Bruker Daltonik GmbH, Germany). […] If needed, additional experiments, such as HSQC and HMBC were performed. The NMR spectra were acquired using Varian VNMRS 300 Oxford 300 MHz spectrometer (Bruker, Billerica, MA, USA).
The α-glucosidase inhibition by extracts was determined spectrophotometrically according to the modified assay previously described. The colorimetric measurement of enzyme activity was based on the hydrolytic cleavage of a substrate, p-nitrophenyl-α-D-glucopyranoside (pNPG). Briefly, sample solution of tested extract or isolated compound (150 µl) dissolved in 0.1 M phosphate buffer (pH 6.8) was incubated with 50 µL of α-glucosidase solution (0.4 U/mL) at 37 °C. After 15 min of incubation, the substrate solution (0.7 mM in 0.1 M phosphate buffer, pH 6.8) was added and the second 15 min incubation at 37 °C was performed. The reaction was terminated by adding 50 µL sodium carbonate solution (0.2 M). The absorbance of p-nitrophenol was measured at 405 nm in a microplate reader (Synergy 4, Biotek, USA).

[5] = set-up: method as in PMID 11958615; settings: concentration of 40 µM; cited from earlier work
[6] = system: glucosidase; set-up: method as in Dehghan et al., 2018; settings: ref Dehghan et al., 2018; cited from earlier work

Chain of α-glucosidase from Saccharomyces cerevisiae (P53341 whole entry): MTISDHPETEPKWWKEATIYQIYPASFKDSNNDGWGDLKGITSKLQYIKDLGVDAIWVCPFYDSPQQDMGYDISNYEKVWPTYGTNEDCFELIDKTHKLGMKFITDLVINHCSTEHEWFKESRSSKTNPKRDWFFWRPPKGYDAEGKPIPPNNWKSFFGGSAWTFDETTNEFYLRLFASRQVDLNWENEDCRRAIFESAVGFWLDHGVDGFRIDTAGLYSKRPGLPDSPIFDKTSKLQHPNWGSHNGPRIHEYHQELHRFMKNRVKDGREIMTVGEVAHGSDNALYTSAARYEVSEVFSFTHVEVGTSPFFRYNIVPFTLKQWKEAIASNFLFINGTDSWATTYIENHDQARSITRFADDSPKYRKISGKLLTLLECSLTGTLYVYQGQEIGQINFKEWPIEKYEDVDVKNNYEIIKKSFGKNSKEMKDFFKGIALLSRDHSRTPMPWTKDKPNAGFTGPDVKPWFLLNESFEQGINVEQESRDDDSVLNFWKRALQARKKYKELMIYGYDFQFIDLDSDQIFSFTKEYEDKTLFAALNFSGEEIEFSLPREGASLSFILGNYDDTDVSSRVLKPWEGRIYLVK

Compound: O=C1O[C@H]([C@@H](O)CO)C(O)=C1O [Ascorbic acid]
SC50 DPPH scavenging [1]: 3.73 ± 0.83 µg/mL

Compound: O=C(O)/C=C/c1ccc(O)c(O)c1 [caffeic acid]
IC50 [2]: 223 µM

Compound: O=C(/C=C/c1ccc(O)c(O)c1)O[C@@H]1C[C@](O)(C(=O)O)C[C@@H](O)[C@H]1O [compound 1, chlorogenic acid]
IC50 [3]: 3810 µM

IC50 [4]: 0.84 ± 0.14 mM
Compound: O=C(C=Cc1ccc(O)cc1)OC1CC(O)(C(=O)O)CC(O)C1O (centres unmarked) [compound 2, 5-O-coumaroylquinic acid]

IC50 [4]: 0.16 ± 0.01 mM
Compound: COC(=O)C1(O)CC(O)C(O)C(OC(=O)/C=C/c2ccc(O)cc2)C1 (centres unmarked) [compound 3, 5-O-(E)-p-coumaroylquinic acid methyl ester]

Compound: COC(=O)[C@H]1O[C@@H](Oc2c(-c3ccc(O)cc3)oc3cc(O)cc(O)c3c2=O)[C@H](O)[C@@H](O)[C@@H]1O [compound 4, kaempferol 3-O-glucuronide 6″-methylester]
IC50 [4]: 0.21 ± 0.05 mM

Compound: OC[C@H]1O[C@@H](OCCc2ccc(O)c(O)c2)[C@H](O)[C@@H](O)[C@@H]1O [compound 5, hydroxytyrosol glucoside]
IC50 [4]: 1.46 ± 0.18 mM

Compound: OC[C@H]1O[C@@H](Oc2cc3c(O)cc(O)cc3[o+]c2-c2ccc(O)c(O)c2)[C@H](O)[C@@H](O)[C@H]1O [cyanidin 3-O-β-galactoside]
antioxidant activity [5]: 60.1%

Compound: OC[C@H]1O[C@@H](Oc2cc3c(O)cc(O)cc3[o+]c2-c2cc(O)c(O)c(O)c2)[C@H](O)[C@@H](O)[C@H]1O [delphinidin 3-O-β-galactoside]
antioxidant activity [5]: 70.2%

Compound: Cc1cc(O)c2c(c1)C(=O)c1cc(O)cc(O)c1C2=O [emodin]
anti-glucosidase activity (in words) [6]: relevant anti-glucosidase activity

Compound: COc1cc(/C=C/C(=O)O)ccc1O [ferulic acid]
IC50 [2]: 461 µM

Compound: O=C(O)c1cc(O)c(O)c(O)c1 [gallic acid]
IC50 [3]: 5050 µM
IC50 [2]: 296 µM

Compound: O=c1c(O[C@@H]2O[C@H](CO)[C@@H](O)[C@H](O)[C@H]2O)c(-c2ccc(O)cc2)oc2cc(O)cc(O)c12 [kaempferol-3-O-glucoside]
IC50 [3]: 3520 µM

Compound: OCC1OC(Oc2cc3c(O)cc(O)cc3[o+]c2-c2ccc(O)cc2)C(O)C(O)C1O (stereo not drawn) [pelargonidin 3-O-β-galactoside]
antioxidant activity [5]: 40.3%

Compound: COc1cc(O)c2c(c1)C(=O)c1cc(C)cc(O)c1C2=O [physcion]
anti-glucosidase activity (in words) [6]: relevant anti-glucosidase activity

Compound: O=c1c(O[C@@H]2O[C@H](CO)[C@@H](O)[C@H](O)[C@H]2O)c(-c2ccc(O)c(O)c2)oc2cc(O)cc(O)c12 [quercetin-3-O-glucoside]
IC50 [3]: 1740 µM
IC50 [2]: 12.3 µM

Compound: C[C@H](CCc1ccc(O)cc1)O[C@@H]1O[C@H](CO)[C@@H](O)[C@H](O)[C@H]1O [rhododendrin]
anti-glucosidase activity (in words) [6]: relevant anti-glucosidase activity

Compound: kaempferol-3-O-rutinoside
IC50 [2]: 10.2 µM
